pIC50: −log10 of the molar value.
System: PC-3 multi-cell spheroids, viability
Assay: Anticancer human tumor PC-3 cell line growth inhibition [IpAb];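 further: spheroids exposed to compounds for 7 days before readout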;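 on viability, T/C: 100% = DMSO vehicle control wells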
Conditions: for pIC50: curve of first compound; for viability, T/C: stronger effect = lower value
Summary of the method: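 Combinations with ipatasertib or abemaciclib were tested on tumour spheroids holding HUVEC (25%) and MSC (15%) alongside 60% malignant cells. Top concentration was at or near clinical Cmax (10 microM if undefined), descending in half-log steps.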

[1] = second compound 0.1 µM, first compound 0.0316 µM
[2] = second compound 0.1 µM, first compound 0.1 µM
[3] = second compound 0.1 µM, first compound 0.316 µM
[4] = second compound 0.1 µM, first compound 1 µM
[5] = second compound 0.1 µM, first compound 3.16 µM
[6] = second compound 0.1 µM, first compound 10 µM
[7] = second compound 0.316 µM, first compound 0.0316 µM
[8] = second compound 0.316 µM, first compound 0.1 µM
[9] = second compound 0.316 µM, first compound 0.316 µM
[10] = second compound 0.316 µM, first compound 1 µM
[11] = second compound 0.316 µM, first compound 3.16 µM
[12] = second compound 0.316 µM, first compound 10 µM
[13] = second compound 1 µM, first compound 0.0316 µM
[14] = second compound 1 µM, first compound 0.1 µM
[15] = second compound 1 µM, first compound 0.316 µM
[16] = second compound 1 µM, first compound 1 µM
[17] = second compound 1 µM, first compound 3.16 µM
[18] = second compound 1 µM, first compound 10 µM
[19] = second compound 3.16 µM, first compound 0.0316 µM
[20] = second compound 3.16 µM, first compound 0.1 µM
[21] = second compound 3.16 µM, first compound 0.316 µM
[22] = second compound 3.16 µM, first compound 1 µM
[23] = second compound 3.16 µM, first compound 3.16 µM
[24] = second compound 3.16 µM, first compound 10 µM
[25] = second compound 10 µM, first compound 0.0316 µM
[26] = second compound 10 µM, first compound 0.1 µM
[27] = second compound 10 µM, first compound 0.316 µM
[28] = second compound 10 µM, first compound 1 µM
[29] = second compound 10 µM, first compound 3.16 µM
[30] = second compound 10 µM, first compound 10 µM

C=CC(=O)N1CCN(c2nc(=O)n(-c3c(C)ccnc3C(C)C)c3nc(-c4c(O)cccc4F)c(F)cc23)C(C)C1 (stereo not given) + CC(C)NCC(C(=O)N1CCN(c2ncnc3c2C(C)CC3O)CC1)c1ccc(Cl)cc1
pIC50 (second compound 0.1 µM): < 5.00 | pIC50 (second compound 0.316 µM): > 7.50 | pIC50 (second compound 1 µM): > 7.50 | pIC50 (second compound 3.16 µM): > 7.50 | pIC50 (second compound 10 µM): > 7.50 | viability, T/C [1]: 82% | viability, T/C [2]: 73.5% | viability, T/C [3]: 72.8% | viability, T/C [4]: 83.6% | viability, T/C [5]: 99.1% | viability, T/C [6]: 87.2% | viability, T/C [7]: 44.4% | viability, T/C [8]: 44.4% | viability, T/C [9]: 43.7% | viability, T/C [10]: 34.7% | viability, T/C [11]: 41.7% | viability, T/C [12]: 43.1% | viability, T/C [13]: 26.5% | viability, T/C [14]: 27.1% | viability, T/C [15]: 27% | viability, T/C [16]: 25.8% | viability, T/C [17]: 26.3% | viability, T/C [18]: 23.2% | viability, T/C [19]: 15.1% | viability, T/C [20]: 15% | viability, T/C [21]: 15.5% | viability, T/C [22]: 15.6% | viability, T/C [23]: 17.1% | viability, T/C [24]: 13.1% | viability, T/C [25]: 14.6% | viability, T/C [26]: 13.7% | viability, T/C [27]: 13.4% | viability, T/C [28]: 14% | viability, T/C [29]: 14.5% | viability, T/C [30]: 7.96%

CC(C)(C)c1cnc(CSc2cnc(NC(=O)C3CCNCC3)s2)o1 + CC(C)NCC(C(=O)N1CCN(c2ncnc3c2C(C)CC3O)CC1)c1ccc(Cl)cc1
pIC50 (second compound 0.1 µM): 6.78 | pIC50 (second compound 0.316 µM): 6.99 | pIC50 (second compound 1 µM): > 8.02 | pIC50 (second compound 3.16 µM): > 8.02 | pIC50 (second compound 10 µM): > 8.02 | viability, T/C (second compound 0.1 µM, first compound 0.00949 µM): 80.2% | viability, T/C (second compound 0.1 µM, first compound 0.03 µM): 98.4% | viability, T/C (second compound 0.1 µM, first compound 0.0949 µM): 95.3% | viability, T/C (second compound 0.1 µM, first compound 0.3 µM): 4.14% | viability, T/C (second compound 0.1 µM, first compound 0.949 µM): 6.3% | viability, T/C (second compound 0.1 µM, first compound 3 µM): 6.84% | viability, T/C (second compound 0.316 µM, first compound 0.00949 µM): 49.9% | viability, T/C (second compound 0.316 µM, first compound 0.03 µM): 46.9% | viability, T/C (second compound 0.316 µM, first compound 0.0949 µM): 64% | viability, T/C (second compound 0.316 µM, first compound 0.3 µM): 3.47% | viability, T/C (second compound 0.316 µM, first compound 0.949 µM): 5.07% | viability, T/C (second compound 0.316 µM, first compound 3 µM): 5.91% | viability, T/C (second compound 1 µM, first compound 0.00949 µM): 31.3% | viability, T/C (second compound 1 µM, first compound 0.03 µM): 34.9% | viability, T/C (second compound 1 µM, first compound 0.0949 µM): 36.7% | viability, T/C (second compound 1 µM, first compound 0.3 µM): 3.39% | viability, T/C (second compound 1 µM, first compound 0.949 µM): 4.05% | viability, T/C (second compound 1 µM, first compound 3 µM): 5.41% | viability, T/C (second compound 3.16 µM, first compound 0.00949 µM): 17.2% | viability, T/C (second compound 3.16 µM, first compound 0.03 µM): 19.3% | viability, T/C (second compound 3.16 µM, first compound 0.0949 µM): 19.5% | viability, T/C (second compound 3.16 µM, first compound 0.3 µM): 3% | viability, T/C (second compound 3.16 µM, first compound 0.949 µM): 3.25% | viability, T/C (second compound 3.16 µM, first compound 3 µM): 4.47% | viability, T/C (second compound 10 µM, first compound 0.00949 µM): 14.8% | viability, T/C (second compound 10 µM, first compound 0.03 µM): 16.8% | viability, T/C (second compound 10 µM, first compound 0.0949 µM): 10.1% | viability, T/C (second compound 10 µM, first compound 0.3 µM): 2.76% | viability, T/C (second compound 10 µM, first compound 0.949 µM): 3.15% | viability, T/C (second compound 10 µM, first compound 3 µM): 3.94%

Cn1ncc(Cl)c1-c1cc(C(=O)NC(CN)Cc2cccc(F)c2)sc1Cl (stereo not given) + CC(C)NCC(C(=O)N1CCN(c2ncnc3c2C(C)CC3O)CC1)c1ccc(Cl)cc1
pIC50 (second compound 0.1 µM): 7.09 | pIC50 (second compound 0.316 µM): > 7.50 | pIC50 (second compound 1 µM): > 7.50 | pIC50 (second compound 3.16 µM): > 7.50 | pIC50 (second compound 10 µM): > 7.50 | viability, T/C [1]: 59.9% | viability, T/C [2]: 48.8% | viability, T/C [3]: 34.3% | viability, T/C [4]: 19.8% | viability, T/C [5]: 16.9% | viability, T/C [6]: 0.15% | viability, T/C [7]: 35.7% | viability, T/C [8]: 40.3% | viability, T/C [9]: 29.2% | viability, T/C [10]: 17.7% | viability, T/C [11]: 14.1% | viability, T/C [12]: 0.17% | viability, T/C [13]: 24.3% | viability, T/C [14]: 24.5% | viability, T/C [15]: 19.9% | viability, T/C [16]: 16.4% | viability, T/C [17]: 15.8% | viability, T/C [18]: 0.14% | viability, T/C [19]: 15.2% | viability, T/C [20]: 15.8% | viability, T/C [21]: 15.5% | viability, T/C [22]: 16% | viability, T/C [23]: 15.3% | viability, T/C [24]: 0.26% | viability, T/C [25]: 13.6% | viability, T/C [26]: 14.1% | viability, T/C [27]: 13.6% | viability, T/C [28]: 14.6% | viability, T/C [29]: 13.9% | viability, T/C [30]: 0.16%

Cn1nccc1Nc1nccc(-c2ccn(C(CO)c3ccc(Cl)c(F)c3)c(=O)c2)n1 (stereo not given) + CC(C)NCC(C(=O)N1CCN(c2ncnc3c2C(C)CC3O)CC1)c1ccc(Cl)cc1
pIC50 (second compound 0.1 µM): < 5.00 | pIC50 (second compound 0.316 µM): > 7.50 | pIC50 (second compound 1 µM): > 7.50 | pIC50 (second compound 3.16 µM): > 7.50 | pIC50 (second compound 10 µM): > 7.50 | viability, T/C [1]: 76.7% | viability, T/C [2]: 77.3% | viability, T/C [3]: 83.1% | viability, T/C [4]: 105% | viability, T/C [5]: 127% | viability, T/C [6]: 104% | viability, T/C [7]: 42.8% | viability, T/C [8]: 43.8% | viability, T/C [9]: 41.9% | viability, T/C [10]: 48% | viability, T/C [11]: 88.1% | viability, T/C [12]: 76.9% | viability, T/C [13]: 20.4% | viability, T/C [14]: 24.2% | viability, T/C [15]: 27.2% | viability, T/C [16]: 34.5% | viability, T/C [17]: 59.1% | viability, T/C [18]: 34.3% | viability, T/C [19]: 14.2% | viability, T/C [20]: 15.4% | viability, T/C [21]: 15.1% | viability, T/C [22]: 19.7% | viability, T/C [23]: 23.4% | viability, T/C [24]: 13.8% | viability, T/C [25]: 12.7% | viability, T/C [26]: 13.3% | viability, T/C [27]: 12.2% | viability, T/C [28]: 14.3% | viability, T/C [29]: 17.4% | viability, T/C [30]: 10.8%

Cn1ncnc1[C@H]1c2n[nH]c(=O)c3cc(F)cc(c23)N[C@@H]1c1ccc(F)cc1 + CC(C)NCC(C(=O)N1CCN(c2ncnc3c2C(C)CC3O)CC1)c1ccc(Cl)cc1
pIC50 (second compound 0.1 µM): 7.88 | pIC50 (second compound 0.316 µM): > 9.50 | pIC50 (second compound 1 µM): > 9.50 | pIC50 (second compound 3.16 µM): > 9.50 | pIC50 (second compound 10 µM): > 9.50 | viability, T/C (second compound 0.1 µM, first compound 0.000316 µM): 78.5% | viability, T/C (second compound 0.1 µM, first compound 0.001 µM): 71.4% | viability, T/C (second compound 0.1 µM, first compound 0.00316 µM): 52.4% | viability, T/C (second compound 0.1 µM, first compound 0.01 µM): 51.8% | viability, T/C [1]: 51.6% | viability, T/C [2]: 40.1% | viability, T/C (second compound 0.316 µM, first compound 0.000316 µM): 47.1% | viability, T/C (second compound 0.316 µM, first compound 0.001 µM): 43.8% | viability, T/C (second compound 0.316 µM, first compound 0.00316 µM): 42.9% | viability, T/C (second compound 0.316 µM, first compound 0.01 µM): 40.3% | viability, T/C [7]: 37.9% | viability, T/C [8]: 32.8% | viability, T/C (second compound 1 µM, first compound 0.000316 µM): 25.3% | viability, T/C (second compound 1 µM, first compound 0.001 µM): 23.3% | viability, T/C (second compound 1 µM, first compound 0.00316 µM): 25.2% | viability, T/C (second compound 1 µM, first compound 0.01 µM): 18.4% | viability, T/C [13]: 19.9% | viability, T/C [14]: 18.7% | viability, T/C (second compound 3.16 µM, first compound 0.000316 µM): 14.2% | viability, T/C (second compound 3.16 µM, first compound 0.001 µM): 14.1% | viability, T/C (second compound 3.16 µM, first compound 0.00316 µM): 14.7% | viability, T/C (second compound 3.16 µM, first compound 0.01 µM): 13.1% | viability, T/C [19]: 13.2% | viability, T/C [20]: 13.8% | viability, T/C (second compound 10 µM, first compound 0.000316 µM): 14.8% | viability, T/C (second compound 10 µM, first compound 0.001 µM): 14% | viability, T/C (second compound 10 µM, first compound 0.00316 µM): 13.3% | viability, T/C (second compound 10 µM, first compound 0.01 µM): 11% | viability, T/C [25]: 11.6% | viability, T/C [26]: 11.3%
